From ChEMBL document CHEMBL6078612, “Novel strategies based on natural products and synthetic derivatives to overcome resistance in Mycobacterium tuberculosis” (Eur J Med Chem, 2024)
In brackets after ≈: the same amount, converted by molar mass.

Tested on: Mycobacterium tuberculosis
Assay: Antimycobacterial activity against multi-drug resistant Mycobacterium tuberculosis
Type: functional

`CC(=O)NC[C@H]1CN(c2ccc(N3CCOCC3)c(F)c2)C(=O)O1` [LINEZOLID] was tested. Which MIC did it give?
The MIC was 0.125 mg/L (≈ 0.371 µM).

How did the MIC turn out when H-GWLDVAKKIGKAAFNVAKNFI-OH was run?
The MIC was < 0.98 mg/L.
